Data as given in patent US20230059136A1, “THE COMPOUNDS AND COMPOSITIONS FOR TREATING CONDITIONS ASSOCIATED WITH NLRP ACTIVITY” (Novartis AG, priority 2018, published 2023).
Like-named read-outs stand apart in the source and are kept apart here.

Test system: IL-1β production in PMA-differentiated THP-1 cells
Assay: IL-1β production in PMA-differentiated THP-1 cells stimulated with gramicidin (hTHP-1 assay containing 2% fetal bovine serum)
Type: cell-based, human
Details: 2% fetal bovine serum, read-out: hTHP-1 IC50 (Average IC50 of compounds in hTHP-1 assay)
Method in brief: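 THP-1 cells were differentiated with PMA 20 ng/ml for 16-18 h, then plated at 50,000 cells/well in RPMI with 2% FBS. They were preincubated 1 h with compound (100–0.0017 μM final, 0.37% DMSO), then stimulated with gramicidin 5 μM for 2 h. Supernatant IL-1β was measured by HTRF.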

[1] = Homo sapiens, THP-1, Table B1, class symbols
[2] = Homo sapiens, THP-1, Table B1, cells printed as numeric bound

Row | Compound | IC50 [1] [nM] | further results
1 | CC(C)c1cc(C#N)c(F)c(C(C)C)c1CC(=O)N=S(N)(=O)c1sc(C(C)(C)O)cc1F (single isomer, unassigned) [Example 44, (S)- or (R)-2-(4-cyano-3-fluoro-2,6-diisopropylphenyl)-N-(3-fluoro-5-(2-hydroxypropan-2-yl)thiophen-2-ylsulfonimidoyl)acetamide] | – | IC50 (Table B1, class symbols): 40 to 200 nM
2 | CC(C)c1ccc(F)c(C(C)C)c1CC(=O)N=S(N)(=O)c1nc(C(C)(C)O)cs1 (single isomer, unassigned) [Example 181, (R) or (S)-N-(amino(4-(2-hydroxypropan-2-yl)thiazol-2-yl)(oxo)-λ^6-sulfaneylidene)-2-(3-fluoro-2,6-diisopropylphenyl) acetamide] | – | IC50 (Table B1, class symbols): 40 to 200 nM
3 | CC(C)c1cc(C#N)cc(C(C)C)c1CC(=O)N=S(N)(=O)c1ncc(C(C)(C)O)s1 (single isomer, unassigned) [Example 83, (S)- or (R)-2-(4-cyano-2,6-diisopropylphenyl)-N-(5-(2-hydroxypropan-2-yl)thiazol-2-ylsulfonimidoyl)acetamide] | – | IC50 (Table B1, class symbols): 40 to 200 nM
4 | CC(C)c1cc(F)cc(C(C)C)c1CC(=O)N=[S@](=O)(NC#N)c1ncc(C(C)(C)O)s1 [Example 341, (S)—N-(cyanamido(5-(2-hydroxypropan-2-yl)thiazol-2-yl)(oxo)-λ^6-sulfaneylidene)-2-(4-fluoro-2,6-diisopropylphenyl)acetamide] | 200 to 1000 | –
5 | CC(C)c1ncc(F)c(C(C)C)c1CC(=O)N=S(N)(=O)c1sc(C(C)(C)O)cc1F (stereo not shown) [Example 149, N-(amino(3-fluoro-5-(2-hydroxypropan-2-yl)thiophen-2-yl)(oxo)-λ^6-sulfaneylidene)-2-(5-fluoro-2,4-diisopropylpyridin-3-yl) acetamide] | 200 to 1000 | –
6 | CC(C)c1cc(Cl)c(F)c(C2CC2)c1CC(=O)N=S(N)(=O)c1sc(C(C)(C)O)cc1F (single isomer, unassigned) [Example 56, (S)- or (R)-2-(4-chloro-2-cyclopropyl-3-fluoro-6-isopropylphenyl)-N-(3-fluoro-5-(2-hydroxypropan-2-yl)thiophen-2-ylsulfonimidoyl)acetamide] | – | IC50 (Table B1, class symbols): 200 to 1000 nM
7 | CC(C)(O)c1ncc(S(N)(=O)=NC(=O)Cc2c3c(cc4c2CC4)CCC3)s1 [Example 224, (S)- and (R)—N-(amino(2-(2-hydroxypropan-2-yl)thiazol-5-yl)(oxo)-λ^6-sulfaneylidene)-2-(2,4,5,6-tetrahydro-1H-cyclobuta[f]inden-3-yl)acetamide] | – | IC50 [2]: > 30000 nM
8 | CC(C)c1cc(C(F)F)nc(C(C)C)c1CC(=O)N=S(N)(=O)c1sc(CN(C)C)cc1F (single isomer, unassigned) [Example 306, (R) or (S)-N-(amino(5-((dimethylamino)methyl)-3-fluorothiophen-2-yl)(oxo)-λ^6-sulfaneylidene)-2-(6-(difluoromethyl)-2,4-diisopropylpyridin-3-yl)acetamide] | 200 to 1000 | –
9 | CNCc1ccc(S(N)(=O)=NC(=O)Cc2c(-c3ccccc3)ccc3c2CCC3)cc1 (racemic) [Example 380, (R) and (S)—N-(amino(4-((methylamino)methyl)phenyl)(oxo)-λ^6-sulfaneylidene)-2-(5-phenyl-2,3-dihydro-1H-inden-4-yl)acetamide] | – | IC50 (Homo sapiens, THP-1, Table B2, cells printed as numeric bound): > 30000 nM
10 | CNCc1ccc(S(N)(=O)=NC(=O)Cc2c(C(C)C)cc(C(F)F)nc2C(C)C)cc1 (single isomer, unassigned) [Example 323, (S) or (R)-N-(amino(4-((methylamino)methyl)phenyl)(oxo)-λ^6-sulfaneylidene)-2-(6-(difluoromethyl)-2,4-diisopropylpyridin-3-yl)acetamide] | – | IC50 [2]: > 30000 nM
11 | CCc1c2c(cc(C(C)C)c1CC(=O)N=S(N)(=O)c1cnc(C(C)(C)O)s1)COC2 (single isomer, unassigned) [Example 289, (R) or (S)-N-(amino(2-(2-hydroxypropan-2-yl)thiazol-5-yl)(oxo)-λ^6-sulfaneylidene)-2-(4-ethyl-6-isopropyl-1,3-dihydroisobenzofuran-5-yl)acetamide] | 5000 to 30000 | –
12 | CC(C)c1cc2c(c(C(C)C)c1CC(=O)N=[S@@](N)(=O)c1cnc(C(C)(C)O)s1)OC(F)(F)O2 [Example 231] | 200 to 1000 | –
13 | Cc1nc(C(C)(C)O)sc1S(N)(=O)=NC(=O)Cc1c(C(C)C)cc(C#N)cc1C(C)C (single isomer, unassigned) [Example 60, (S)- or (R)-2-(4-cyano-2,6-diisopropylphenyl)-N-(2-(2-hydroxypropan-2-yl)-4-methylthiazole-5-sulfonimidoyl)acetamide] | – | IC50 (Table B1, class symbols): 40 to 200 nM
14 | CC(C)c1cc2c(c(C(C)C)c1CC(=O)N=S(N)(=O)c1cnc(C(C)(C)O)s1)COC2=O (stereo not shown) [Example 256, N-(amino(2-(2-hydroxypropan-2-yl)thiazol-5-yl) (oxo)-λ^6-sulfaneylidene)-2-(4,6-diisopropyl-1-oxo-1,3-dihydroisobenzofuran-5-yl)acetamide] | 5000 to 30000 | –
15 | CC(C)c1cc(C#N)c(F)c(C(C)C)c1CC(=O)N=S(N)(=O)c1cnc(C(C)(O)CO)s1 (single isomer, unassigned) [Example 335, (R, S) or (S, S)-N-(amino(2-(1,2-dihydroxypropan-2-yl)thiazol-5-yl)(oxo)-λ^6-sulfaneylidene)-2-(4-cyano-3-fluoro-2,6-diisopropylphenyl) acetamide] | – | IC50 [2]: > 30000 nM
16 | CC(C)c1cc(-c2ccc3c(c2)COCC3)cc(C(C)C)c1CC(=O)N=S(N)(=O)c1cnc(C(C)(C)O)s1 (stereo not shown) [Example 97, N-(amino(2-(2-hydroxypropan-2-yl)thiazol-5-yl)(oxo)-λ^6-sulfaneylidene)-2-(4-(isochroman-7-yl)-2,6-diisopropylphenyl)acetamide] | 200 to 1000 | –
17 | CC(C)c1cc2c(cnn2C)c(C(C)C)c1CC(=O)N=[S@@](N)(=O)c1cnc(C(C)(C)O)s1 [Example 232, (R)-N-(amino(2-(2-hydroxypropan-2-yl)thiazol-5-yl)(oxo)-λ^6-sulfaneylidene)-2-(4,6-diisopropyl-1-methyl-1H-indazol-5-yl)acetamide] | 5000 to 30000 | –
18 | CC(C)c1cc(-c2ccc(Cl)c(Cl)c2)cc(C(C)C)c1CC(=O)N=S(N)(=O)c1ncc(C(C)(C)O)s1 (stereo not shown) [Example 122, N-(amino(5-(2-hydroxypropan-2-yl)thiazol-2-yl)(oxo)-λ^6-sulfaneylidene)-2-(3′,4′-dichloro-3,5-diisopropyl-[1,1′-biphenyl]-4-yl)acetamide] | 200 to 1000 | –
19 | CC(C)c1cc(F)cc(C(C)C)c1CC(=O)NS(=N)(=O)c1ncc(C(C)(C)O)s1 [Example 8, (S)- and (R)-2-(4-fluoro-2,6-diisopropylphenyl)-N-(5-(2-hydroxypropan-2-yl)thiazole-2-sulfonimidoyl)acetamide] | 1000 to 5000 | –
20 | CC(C)c1cc(C(=O)CC2CCCCC2)cc(C(C)C)c1CC(=O)N=S(N)(=O)c1cc(C(C)(C)O)n(-c2ccccc2)n1 (stereo not shown) [Example 227] | 1000 to 5000 | –
21 | CC(C)c1ccc(F)c(C(C)C)c1CC(=O)N=S(N)(=O)c1ncc(C(C)(C)O)s1 (single isomer, unassigned) [Example 188, (R) or (S)-N-(amino(5-(2-hydroxypropan-2-yl)thiazol-2-yl)(oxo)-λ^6-sulfaneylidene)-2-(3-fluoro-2,6-diisopropylphenyl) acetamide] | – | IC50 (Table B1, class symbols): 200 to 1000 nM
22 | CC(C)c1cc(-c2ccc3c(c2)OC(F)(F)O3)cc(C(C)C)c1CC(=O)N=S(N)(=O)c1ncc(C(C)(C)O)s1 (stereo not shown) [Example 117, N-(amino(5-(2-hydroxypropan-2-yl)thiazol-2-yl)(oxo)-λ^6-sulfaneylidene)-2-(4-(2,2-difluorobenzo[d][1,3]dioxol-5-yl)-2,6-diisopropylphenyl) acetamide] | 40 to 200 | –
23 | CC(C)c1cc(C#N)c(F)c(C(C)C)c1CC(=O)N=S(N)(=O)c1cnc(C(C)(O)CO)s1 (single isomer, unassigned) [Example 333] | – | IC50 (Table B1, class symbols): 40 to 200 nM
24 | CC(C)c1cc(F)cc(C(C)C)c1CC(=O)N=S(N)(=O)c1sc(C(C)(C)O)nc1CO (racemic) [Example 356, (R) and (S)—N-(amino(4-(hydroxymethyl)-2-(2-hydroxypropan-2-yl)thiazol-5-yl)(oxo)-λ^6-sulfaneylidene)-2-(4-fluoro-2,6-diisopropylphenyl)acetamide] | – | IC50 (Table B2, class symbols): 200 to 1000 nM
25 | CC(C)c1cc2c(c(C(C)C)c1CC(=O)N=S(N)(=O)c1ccn(C(F)F)n1)COC2 (single isomer, unassigned) [Example 319, (R) or (S)-N-(amino(1-(difluoromethyl)-1H-pyrazol-3-yl)(oxo)-λ^6-sulfaneylidene)-2-(4,6-diisopropyl-1,3-dihydroisobenzofuran-5-yl)acetamide] | 5000 to 30000 | –
26 | CC(C)c1cc2c(c(C(C)C)c1CC(=O)N=S(N)(=O)c1cnn3c1OCCC3)COC2 (stereo not shown) [Example 267, N-(amino(6,7-dihydro-5H-pyrazolo[5,1-b][1,3]oxazin-3-yl)(oxo)-λ^6-sulfaneylidene)-2-(4,6-diisopropyl-1,3-dihydroisobenzofuran-5-yl)acetamide] | 5000 to 30000 | –
27 | CC(C)c1cc2c(c(C(C)C)c1CC(=O)N=S(N)(=O)c1sc(CN(C)C)cc1F)COC2 (stereo not shown) [Example 249, N-(amino(5-((dimethylamino)methyl)-3-fluorothiophen-2-yl)(oxo)-λ^6-sulfaneylidene)-2-(4,6-diisopropyl-1,3-dihydroisobenzofuran-5-yl)acetamide] | 1000 to 5000 | –
28 | CC(C)c1ccc(C#N)c(C(C)C)c1CC(=O)N=S(N)(=O)c1nc(C(C)(C)O)cs1 (stereo not shown) [Example 120, N-(amino(4-(2-hydroxypropan-2-yl)thiazol-2-yl)(oxo)-λ^6-sulfaneylidene)-2-(3-cyano-2,6-diisopropylphenyl)acetamide] | 200 to 1000 | –
